Experimental data as given in PMC6409085, “Three odorant-binding proteins are involved in the behavioral response of Sogatella furcifera to rice plant volatiles” (PeerJ, 2019).
“And” between values parts separate entries of the source, which are not always exact repeats. Equal entries are not always repeated.

Assays:
S. furcifera adults = assay: Y-tube olfactometer behavioral trials; assay type: in vivo, Sogatella furcifera; settings: odorant 50 µL/L vs hexane; adults
Protocol: To test the effect of the rice odorants on the behavior of S. furcifera adults, a glass Y-tube olfactometer (inner diameter 2.0 cm, stem 13 cm, arms 10 cm, angle of arms 60°) according to the previously described ([Wang et al., 2014b]) was employed. An airtight cubic box (70 by 45 by 30 cm) was used to position Y-tube, and the Y-tube was lighted by a 30-W filament lamp 25 cm above it. Air that filtered through activated charcoal and humidified with doubly distilled water was pumped in both arms at a flow rate of 300 mL/min. Two filter paper strips (10 by 1 cm) containing 100 µL odorant source (50 µL/L) and 100 µL control hexane were placed in two holding chambers in the front of the olfactometer, respectively. A S. furcifera adult (2 days after emergence, starved for 0.5 h) was randomly chosen and placed in the stem of the Y-tube. Each insect was given 10 min to choose between the two arms of the Y-tube, the choice was noted if the planthopper reached one-half of the arms’ lengths and stayed in the arm for more than 1 min. Besides, S. furcifera was considered as having no orientation preference. Forty-five individuals were used for each compound, each insect used only once. And the dual-choice experiment was done in an environmentally controlled room (25 ± 1 °C and 50% RH). A Chi-squared test was used to analyze the behavioral assay data by using SPSS19.0 (SPSS Inc., Chicago, IL, USA) software.

SfurOBP1 = SfurOBP1 (Sogatella furcifera, UniProt V5T8N5); assay: biochemical; assay type: binding; settings: for Fluorescence competitive binding assay, fluorescence intensity: OBP1, three replicate columns
Sequence of SfurOBP1 (V5T8N5 entry or part of it): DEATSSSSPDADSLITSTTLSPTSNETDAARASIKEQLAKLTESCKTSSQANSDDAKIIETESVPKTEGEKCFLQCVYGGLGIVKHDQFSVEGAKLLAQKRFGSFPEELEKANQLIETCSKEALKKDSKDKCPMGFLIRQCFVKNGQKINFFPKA
How it was run: (§1)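 First, 2.0 µM protein in 50 mM Tris-HCl (pH 7.4) was titrated with 1-NPN to obtain K1-NPN. Then odorants (2–20 µM final) competed against 2.0 µM 1-NPN, with fluorescence (ex 337 nm) recorded after 2 min. Ki was computed from IC50 via Ki = IC50/(1 + [1-NPN]/K1-NPN).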

SfurOBP11 = SfurOBP11 (Sogatella furcifera, UniProt V5T6E3); assay: biochemical; assay type: binding
Sequence of SfurOBP11 (V5T6E3 entry or part of it): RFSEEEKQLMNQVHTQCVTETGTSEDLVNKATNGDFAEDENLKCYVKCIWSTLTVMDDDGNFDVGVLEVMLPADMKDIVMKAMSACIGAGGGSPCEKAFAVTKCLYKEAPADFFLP
How it was run: as §1

SfurOBP2 = SfurOBP2 (Sogatella furcifera, UniProt V5T759); assay: biochemical; assay type: binding
Sequence of SfurOBP2 (V5T759 entry or part of it): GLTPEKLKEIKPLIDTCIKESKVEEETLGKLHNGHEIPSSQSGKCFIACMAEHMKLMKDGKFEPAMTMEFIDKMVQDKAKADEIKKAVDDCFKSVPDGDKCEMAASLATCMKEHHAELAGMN
How it was run: as §1

SfurOBP3 = SfurOBP3 (Sogatella furcifera, UniProt V5T818); assay: biochemical; assay type: binding; settings: for Fluorescence competitive binding assay, fluorescence intensity: OBP3, three replicate columns
Sequence of SfurOBP3 (V5T818 entry or part of it): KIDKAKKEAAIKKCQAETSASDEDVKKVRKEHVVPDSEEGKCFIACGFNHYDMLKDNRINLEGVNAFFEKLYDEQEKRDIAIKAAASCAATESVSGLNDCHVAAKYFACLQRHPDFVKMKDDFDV
How it was run: as §1

CCCCCCCCC=O [nonanal]
number of insects choosing hexane arm (S. furcifera adults): 12 | number of insects choosing volatilies arm (S. furcifera adults): 17 | number of insects failed (no choice) (S. furcifera adults): 11 | Fluorescence competitive binding assay, fluorescence intensity (SfurOBP1; ligand concentration 2 (μM)): 7802 and 7217 and 8367 | Fluorescence competitive binding assay, fluorescence intensity (SfurOBP1; ligand concentration 4 (μM)): 10256 and 8383 and 7448 | Fluorescence competitive binding assay, fluorescence intensity (SfurOBP1; ligand concentration 6 (μM)): 7755 and 7709 and 7657 | Fluorescence competitive binding assay, fluorescence intensity (SfurOBP1; ligand concentration 8 (μM)): 8353 and 6725 and 6896 | Fluorescence competitive binding assay, fluorescence intensity (SfurOBP1; ligand concentration 10 (μM)): 7309 and 7612 and 6541 | Fluorescence competitive binding assay, fluorescence intensity (SfurOBP1; ligand concentration 12 (μM)): 7182 and 6932 and 8389 | Fluorescence competitive binding assay, fluorescence intensity (SfurOBP1; ligand concentration 14 (μM)): 7695 and 6348 and 8106 | Fluorescence competitive binding assay, fluorescence intensity (SfurOBP1; ligand concentration 16 (μM)): 7645 and 7087 and 7719 | Fluorescence competitive binding assay, fluorescence intensity (SfurOBP1; ligand concentration 18 (μM)): 9286 and 8583 and 8604 | Fluorescence competitive binding assay, fluorescence intensity (SfurOBP1; ligand concentration 20 (μM)): 13401 and 7898 and 7495 | IC50 (SfurOBP1; SfurOBP1, protein and 1-NPN both 2.0 µM, competitor 2-20 µM, read-out: IC50): > 20 µM | IC50 (SfurOBP11; SfurOBP11, protein and 1-NPN both 2.0 µM, competitor 2-20 µM, read-out: IC50): > 20 µM | Fluorescence intensity, fluorescence competitive binding assay, OBP11 (SfurOBP11; ligand concentration 2, replicate 1): 31191 | Fluorescence intensity, fluorescence competitive binding assay, OBP11 (SfurOBP11; ligand concentration 2, replicate 2): 27026 | Fluorescence intensity, fluorescence competitive binding assay, OBP11 (SfurOBP11; ligand concentration 2, replicate 3): 27251 | Fluorescence intensity, fluorescence competitive binding assay, OBP11 (SfurOBP11; ligand concentration 4, replicate 1): 33062 | Fluorescence intensity, fluorescence competitive binding assay, OBP11 (SfurOBP11; ligand concentration 4, replicate 2): 32235 | Fluorescence intensity, fluorescence competitive binding assay, OBP11 (SfurOBP11; ligand concentration 4, replicate 3): 30749 | Fluorescence intensity, fluorescence competitive binding assay, OBP11 (SfurOBP11; ligand concentration 6, replicate 1): 33680 | Fluorescence intensity, fluorescence competitive binding assay, OBP11 (SfurOBP11; ligand concentration 6, replicate 2): 31560 | Fluorescence intensity, fluorescence competitive binding assay, OBP11 (SfurOBP11; ligand concentration 6, replicate 3): 31826 | Fluorescence intensity, fluorescence competitive binding assay, OBP11 (SfurOBP11; ligand concentration 8, replicate 1): 29344 | Fluorescence intensity, fluorescence competitive binding assay, OBP11 (SfurOBP11; ligand concentration 8, replicate 2): 31482 | Fluorescence intensity, fluorescence competitive binding assay, OBP11 (SfurOBP11; ligand concentration 8, replicate 3): 30513 | Fluorescence intensity, fluorescence competitive binding assay, OBP11 (SfurOBP11; ligand concentration 10, replicate 1): 29393 | Fluorescence intensity, fluorescence competitive binding assay, OBP11 (SfurOBP11; ligand concentration 10, replicate 2): 28581 | Fluorescence intensity, fluorescence competitive binding assay, OBP11 (SfurOBP11; ligand concentration 10, replicate 3): 27079 | Fluorescence intensity, fluorescence competitive binding assay, OBP11 (SfurOBP11; ligand concentration 12, replicate 1): 26945 | Fluorescence intensity, fluorescence competitive binding assay, OBP11 (SfurOBP11; ligand concentration 12, replicate 2): 26618 | Fluorescence intensity, fluorescence competitive binding assay, OBP11 (SfurOBP11; ligand concentration 12, replicate 3): 27193 | Fluorescence intensity, fluorescence competitive binding assay, OBP11 (SfurOBP11; ligand concentration 14, replicate 1): 24856 | Fluorescence intensity, fluorescence competitive binding assay, OBP11 (SfurOBP11; ligand concentration 14, replicate 2): 26161 | Fluorescence intensity, fluorescence competitive binding assay, OBP11 (SfurOBP11; ligand concentration 14, replicate 3): 27383 | Fluorescence intensity, fluorescence competitive binding assay, OBP11 (SfurOBP11; ligand concentration 16, replicate 1): 23278 | Fluorescence intensity, fluorescence competitive binding assay, OBP11 (SfurOBP11; ligand concentration 16, replicate 2): 23147 | Fluorescence intensity, fluorescence competitive binding assay, OBP11 (SfurOBP11; ligand concentration 16, replicate 3): 23455 | Fluorescence intensity, fluorescence competitive binding assay, OBP11 (SfurOBP11; ligand concentration 18, replicate 1): 27255 | Fluorescence intensity, fluorescence competitive binding assay, OBP11 (SfurOBP11; ligand concentration 18, replicate 2): 25416 | Fluorescence intensity, fluorescence competitive binding assay, OBP11 (SfurOBP11; ligand concentration 18, replicate 3): 25774 | Fluorescence intensity, fluorescence competitive binding assay, OBP11 (SfurOBP11; ligand concentration 20, replicate 1): 25007 | Fluorescence intensity, fluorescence competitive binding assay, OBP11 (SfurOBP11; ligand concentration 20, replicate 2): 22862 | Fluorescence intensity, fluorescence competitive binding assay, OBP11 (SfurOBP11; ligand concentration 20, replicate 3): 22028 | IC50 (SfurOBP2; SfurOBP2, protein and 1-NPN both 2.0 µM, competitor 2-20 µM, read-out: IC50): > 20 µM | Fluorescence competitive binding assay, OBP2 (raw fluorescence reading) (SfurOBP2; ligand concentration 2 (unit not given), replicate column 1 of 3): 22495 | Fluorescence competitive binding assay, OBP2 (raw fluorescence reading) (SfurOBP2; ligand concentration 2 (unit not given), replicate column 2 of 3): 22840 | Fluorescence competitive binding assay, OBP2 (raw fluorescence reading) (SfurOBP2; ligand concentration 2 (unit not given), replicate column 3 of 3): 21233 | Fluorescence competitive binding assay, OBP2 (raw fluorescence reading) (SfurOBP2; ligand concentration 4 (unit not given), replicate column 1 of 3): 23391 | Fluorescence competitive binding assay, OBP2 (raw fluorescence reading) (SfurOBP2; ligand concentration 4 (unit not given), replicate column 2 of 3): 22604 | Fluorescence competitive binding assay, OBP2 (raw fluorescence reading) (SfurOBP2; ligand concentration 4 (unit not given), replicate column 3 of 3): 23347 | Fluorescence competitive binding assay, OBP2 (raw fluorescence reading) (SfurOBP2; ligand concentration 6 (unit not given), replicate column 1 of 3): 22973 | Fluorescence competitive binding assay, OBP2 (raw fluorescence reading) (SfurOBP2; ligand concentration 6 (unit not given), replicate column 2 of 3): 22972 | Fluorescence competitive binding assay, OBP2 (raw fluorescence reading) (SfurOBP2; ligand concentration 6 (unit not given), replicate column 3 of 3): 22119 | Fluorescence competitive binding assay, OBP2 (raw fluorescence reading) (SfurOBP2; ligand concentration 8 (unit not given), replicate column 1 of 3): 20829 | Fluorescence competitive binding assay, OBP2 (raw fluorescence reading) (SfurOBP2; ligand concentration 8 (unit not given), replicate column 2 of 3): 21110 | Fluorescence competitive binding assay, OBP2 (raw fluorescence reading) (SfurOBP2; ligand concentration 8 (unit not given), replicate column 3 of 3): 19166 | Fluorescence competitive binding assay, OBP2 (raw fluorescence reading) (SfurOBP2; ligand concentration 10 (unit not given), replicate column 1 of 3): 18739 | Fluorescence competitive binding assay, OBP2 (raw fluorescence reading) (SfurOBP2; ligand concentration 10 (unit not given), replicate column 2 of 3): 19572 | Fluorescence competitive binding assay, OBP2 (raw fluorescence reading) (SfurOBP2; ligand concentration 10 (unit not given), replicate column 3 of 3): 20059 | Fluorescence competitive binding assay, OBP2 (raw fluorescence reading) (SfurOBP2; ligand concentration 12 (unit not given), replicate column 1 of 3): 18220 | Fluorescence competitive binding assay, OBP2 (raw fluorescence reading) (SfurOBP2; ligand concentration 12 (unit not given), replicate column 2 of 3): 17338 | Fluorescence competitive binding assay, OBP2 (raw fluorescence reading) (SfurOBP2; ligand concentration 12 (unit not given), replicate column 3 of 3): 19313 | Fluorescence competitive binding assay, OBP2 (raw fluorescence reading) (SfurOBP2; ligand concentration 14 (unit not given), replicate column 1 of 3): 18807 | Fluorescence competitive binding assay, OBP2 (raw fluorescence reading) (SfurOBP2; ligand concentration 14 (unit not given), replicate column 2 of 3): 18093 | Fluorescence competitive binding assay, OBP2 (raw fluorescence reading) (SfurOBP2; ligand concentration 14 (unit not given), replicate column 3 of 3): 18015 | Fluorescence competitive binding assay, OBP2 (raw fluorescence reading) (SfurOBP2; ligand concentration 16 (unit not given), replicate column 1 of 3): 15898 | Fluorescence competitive binding assay, OBP2 (raw fluorescence reading) (SfurOBP2; ligand concentration 16 (unit not given), replicate column 2 of 3): 17144 | Fluorescence competitive binding assay, OBP2 (raw fluorescence reading) (SfurOBP2; ligand concentration 16 (unit not given), replicate column 3 of 3): 15877 | Fluorescence competitive binding assay, OBP2 (raw fluorescence reading) (SfurOBP2; ligand concentration 18 (unit not given), replicate column 1 of 3): 16375 | Fluorescence competitive binding assay, OBP2 (raw fluorescence reading) (SfurOBP2; ligand concentration 18 (unit not given), replicate column 2 of 3): 13674 | Fluorescence competitive binding assay, OBP2 (raw fluorescence reading) (SfurOBP2; ligand concentration 18 (unit not given), replicate column 3 of 3): 18894 | Fluorescence competitive binding assay, OBP2 (raw fluorescence reading) (SfurOBP2; ligand concentration 20 (unit not given), replicate column 1 of 3): 16296 | Fluorescence competitive binding assay, OBP2 (raw fluorescence reading) (SfurOBP2; ligand concentration 20 (unit not given), replicate column 2 of 3): 16765 | Fluorescence competitive binding assay, OBP2 (raw fluorescence reading) (SfurOBP2; ligand concentration 20 (unit not given), replicate column 3 of 3): 17962 | Fluorescence competitive binding assay, fluorescence intensity (SfurOBP3; ligand concentration 2): 61166 and 61638 and 64447 | Fluorescence competitive binding assay, fluorescence intensity (SfurOBP3; ligand concentration 4): 63416 and 64552 and 59405 | Fluorescence competitive binding assay, fluorescence intensity (SfurOBP3; ligand concentration 6): 55740 and 58561 and 59455 | Fluorescence competitive binding assay, fluorescence intensity (SfurOBP3; ligand concentration 8): 58358 and 53959 and 58376 | Fluorescence competitive binding assay, fluorescence intensity (SfurOBP3; ligand concentration 10): 51490 and 57535 and 53641 | Fluorescence competitive binding assay, fluorescence intensity (SfurOBP3; ligand concentration 12): 51816 and 53317 and 52476 | Fluorescence competitive binding assay, fluorescence intensity (SfurOBP3; ligand concentration 14): 50240 and 49815 and 48142 | Fluorescence competitive binding assay, fluorescence intensity (SfurOBP3; ligand concentration 16): 46199 and 48600 and 42686 | Fluorescence competitive binding assay, fluorescence intensity (SfurOBP3; ligand concentration 18): 47759 and 45050 and 48665 | Fluorescence competitive binding assay, fluorescence intensity (SfurOBP3; ligand concentration 20): 47298 and 41425 and 41649 | IC50 (SfurOBP3; SfurOBP3, protein and 1-NPN both 2.0 µM, competitor 2-20 µM, read-out: IC50): > 20 µM
